The inhibition is the relative decrease from the control value, in per cent. The term melting point denotes the temperature, or range, at which the solid turns liquid.

Structures can show the parent of a compound that is named as a salt.

From patent publication US9029536B2, “Fused heterocyclic compounds” (Takeda Pharmaceutical Company Limited, priority 2010, dated 2015) come the findings set out here.

T1 sequence (Q9Y233 267-1055): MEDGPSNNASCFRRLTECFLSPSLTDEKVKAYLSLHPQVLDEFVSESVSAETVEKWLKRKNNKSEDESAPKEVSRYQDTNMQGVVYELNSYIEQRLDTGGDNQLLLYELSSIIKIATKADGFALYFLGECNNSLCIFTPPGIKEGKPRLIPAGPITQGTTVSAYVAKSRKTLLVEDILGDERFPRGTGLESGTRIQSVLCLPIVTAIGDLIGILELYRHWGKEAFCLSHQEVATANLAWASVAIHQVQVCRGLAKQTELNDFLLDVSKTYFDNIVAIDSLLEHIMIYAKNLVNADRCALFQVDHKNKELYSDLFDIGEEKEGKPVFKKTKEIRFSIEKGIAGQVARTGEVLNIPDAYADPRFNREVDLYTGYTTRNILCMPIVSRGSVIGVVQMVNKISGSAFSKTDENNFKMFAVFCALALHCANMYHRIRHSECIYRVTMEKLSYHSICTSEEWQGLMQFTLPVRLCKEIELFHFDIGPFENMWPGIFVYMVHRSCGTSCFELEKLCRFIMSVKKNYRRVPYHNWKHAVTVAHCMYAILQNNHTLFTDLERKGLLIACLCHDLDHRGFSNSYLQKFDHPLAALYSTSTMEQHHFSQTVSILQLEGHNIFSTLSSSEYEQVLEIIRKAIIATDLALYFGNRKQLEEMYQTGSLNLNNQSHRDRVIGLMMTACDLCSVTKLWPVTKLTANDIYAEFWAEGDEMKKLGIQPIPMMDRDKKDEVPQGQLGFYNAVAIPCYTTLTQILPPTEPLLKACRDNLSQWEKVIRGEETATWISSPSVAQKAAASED

The first series concerns the target T1, Human PDE10A enzyme (Homo sapiens, UniProt Q9Y233).
T1 construct: Sf9 or COS-7 cells transfected with the full-length gene; His-tag; made in house; host or cells: Sf9 or COS-7 cells
Kind of series: PDE enzyme inhibition (SPA, [3H]cGMP). It is filed as biochemical. The following applies: 1 μM compound, [3H]cGMP substrate. On the procedure: Human PDE10A enzyme was generated from Sf9 or COS-7 cells transfected with the full-length gene. Cloned enzyme was extracted from homogenized cell pellets. The extracted enzyme from sf9 cells was partially purified using His-tag affinity column. The enzyme was stored at −70° C. until use. PDE activity was measured using a SPA (Scintillation Proximity Assay) (GE Healthcare). To evaluate the inhibitory activity, 10 μL of serial diluted compounds were incubated with 20 μL of PDE enzyme in assay buffer (50 mM HEPES-NaOH, 8.3 mM MgCl2, 1.7 mM EGTA, 0.1% BSA (pH 7.4)) for 30 min. at room temperature. Final concentration of DMSO in the assay was 1 percent as compounds were tested in duplicate in 96-well half-area plates (Corning). To start the reaction, 10 μL of substrate [^3H] cGMP (25 or 50 nM; enclosed in SPA kits from GE Healthcare or purchased from PerkinElmer, respectively) was added for a final assay volume of 40 μL. After 60 min incubation at room temperature, yttrium SPA beads containing Zinc sulphate were added (20 μL at 6 mg/mL) to terminate the PDE reaction. After being settled for 60 min, assay plates were counted in a scintillation counter (PerkinElmer) to allow calculation of inhibition rate. Inhibition rate was calculated on the basis of 0% control wells with DMSO and 100% control wells without enzyme.
Consider `Cn1cc(-c2ccc(Nc3nc4ccccc4o3)cc2)c2ncccc21` [Example 1, N-[4-(1-Methyl-1H-pyrrolo[3,2-b]pyridin-3-yl)phenyl]-1,3-benzoxazol-2-amine hydrochloride], for which the inhibition at 1 µM came to 97.6%. Same read-out and setting: to `CCn1nc(-c2ccc(Oc3nc4ccccc4[nH]3)cc2)c2ncccc21` [Example 3, 3-[4-(1H-Benzimidazol-2-yloxy)phenyl]-1-ethyl-1H-pyrazolo[4,3-b]pyridine] belongs 97.7%; to `CCn1nc(-c2ccc(Oc3nc4ccccc4n3C)cc2)c2ncccc21` [Example 4, 1-Ethyl-3-{4-[(1-methyl-1H-benzimidazol-2-yl)oxy]phenyl}-1H-pyrazolo[4,3-b]pyridine], 98.7%. Consider `CCn1nc(-c2ccc(C(=O)c3nc4ccccc4n3C)cc2)c2ncccc21` [Example 6, [4-(1-Ethyl-1H-pyrazolo[4,3-b]pyridin-3-yl)phenyl] (1-methyl-1H-benzimidazol-2-yl)methanone], for which the inhibition at 1 µM is 95%. In the case of `CCn1nc(-c2ccc3c(c2)CCN3c2nc3ccccc3[nH]2)c2ncccc21` [Example 7, 3-[1-(1H-Benzimidazol-2-yl)-2,3-dihydro-1H-indol-5-yl]-1-ethyl-1H-pyrazolo[4,3-b]pyridine], the inhibition at 1 µM was found to be 101%.

As for `CCn1nc(-c2ccc(Oc3cn4ccccc4n3)cc2)c2ncccc21` [Example 8, 1-Ethyl-3-[4-(imidazo[1,2-a]pyridin-2-yloxy)phenyl]-1H-pyrazolo[4,3-b]pyridine hydrochloride], the inhibition at 1 µM is 100%. As for `CCn1nc(-c2ccc(Oc3nc4ccccc4[nH]3)nc2)c2ncccc21` [Example 10, 3-[6-(1H-Benzimidazol-2-yloxy)pyridin-3-yl]-1-ethyl-1H-pyrazolo[4,3-b]pyridine], the inhibition at 1 µM came out at 99%. Still for that read-out and setting: the same measure for `c1ccc2[nH]c(Oc3ccc(-c4c5n(c6cccnc46)CCCC5)cc3)nc2c1` [Example 13, 10-[4-(1H-Benzimidazol-2-yloxy)phenyl]-6,7,8,9-tetrahydropyrido[2,3-b]indolizine]: 103%; for `CC(C)n1nc(-c2ccc(Oc3nc4cccnc4n3C)cc2)c2ncccc21` [Example 18, 1-(1-Methylethyl)-3-{4-[(3-methyl-3H-imidazo[4,5-b]pyridin-2-yl)oxy]phenyl}-1H-pyrazolo[4,3-b]pyridine]: 100%. Still for that read-out and setting: to `CCn1nc(-c2ccc(C3CCn4c3nc3ccccc34)cc2)c2ncccc21` (centres unmarked) [Example 24, 3-[4-(1-Ethyl-1H-pyrazolo[4,3-b]pyridin-3-yl)phenyl]-2,3-dihydro-1H-pyrrolo[1,2-a]benzimidazole] belongs 99%.

As to `CCn1nc(-c2ccc(Oc3nc4cccnc4n3C)cc2)c2nccnc21` [Example 28, 1-Ethyl-3-{4-[(3-methyl-3H-imidazo[4,5-b]pyridin-2-yl)oxy]phenyl}-1H-pyrazolo[3,4-b]pyrazine], the inhibition at 1 µM came to 101%. On the same count and under the same terms, the same measure for `CCn1nc(-c2ccc(Oc3nc4cccnc4n3CCOC)cc2)c2ncccc21` [Example 34, 1-Ethyl-3-(4-{[3-(2-methoxyethyl)-3H-imidazo[4,5-b]pyridin-2-yl]oxy}phenyl)-1H-pyrazolo[4,3-b]pyridine]: 105%. The same measure, in the same setting: the same measure for `COCCn1c(Oc2ccc(-c3nn(C(C)C)c4cccnc34)cc2)nc2cccnc21` [Example 35]: 93%; for `CCn1nc(-c2ccc(Oc3nc4ccccc4n3CC(C)(C)O)cc2)c2ncccc21` [Example 36, 1-{2-[4-(1-Ethyl-1H-pyrazolo[4,3-b]pyridin-3-yl)phenoxy]-1H-benzimidazol-1-yl}-2-methylpropan-2-ol]: 99%. On the same count and under the same terms, to `CCn1nc(-c2ccc(Oc3nc4cccnc4n3C)cc2)c2ncc(F)cc21` [Example 37, 1-Ethyl-6-fluoro-3-{4-[(3-methyl-3H-imidazo[4,5-b]pyridin-2-yl)oxy]phenyl}-1H-pyrazolo[4,3-b]pyridine] belongs 101%; to `CCn1nc(-c2ccc(Oc3nc4cccnc4n3C)cc2)c2ncncc21` [Example 38, 1-Ethyl-3-{4-[(3-methyl-3H-imidazo[4,5-b]pyridin-2-yl)oxy]phenyl}-1H-pyrazolo[4,3-d]pyrimidine], 103%. As to `Cn1c(Oc2ccc(-c3nn(CC(F)F)c4cccnc34)cc2)nc2cccnc21` [Example 39, 1-(2,2-Difluoroethyl)-3-{4-[(3-methyl-3H-imidazo[4,5-b]pyridin-2-yl)oxy]phenyl}-1H-pyrazolo[4,3-b]pyridine], the inhibition at 1 µM is 102%.

Regarding `CC(C)n1nc(-c2ccc(Oc3nc4cccnc4n3C)cc2)c2ncc(F)cc21` [Example 40, 6-Fluoro-1-(1-methylethyl)-3-{4-[(3-methyl-3H-imidazo[4,5-b]pyridin-2-yl)oxy]phenyl}-1H-pyrazolo[4,3-b]pyridine], the inhibition at 1 µM is 101%. The same measure, in the same setting: the same measure for `Cn1nc(-c2ccc(Oc3nc4cccnc4n3C)cc2)c2ncccc21` [Example 44, 1-Methyl-3-{4-[(3-methyl-3H-imidazo[4,5-b]pyridin-2-yl)oxy]phenyl}-1H-pyrazolo[4,3-b]pyridine]: 107%; for `Cn1nc(-c2ccc(Oc3nc4cccnc4n3C)cc2)c2ncc(F)cc21` [Example 45, 6-Fluoro-1-methyl-3-{4-[(3-methyl-3H-imidazo[4,5-b]pyridin-2-yl)oxy]phenyl}-1H-pyrazolo[4,3-b]pyridine]: 95%; for `CCn1nc(-c2ccc(Oc3nc4cccnc4n3CCOC)cc2)c2ncc(F)cc21` [Example 48, 1-Ethyl-6-fluoro-3-(4-{[3-(2-methoxyethyl)-3H-imidazo[4,5-b]pyridin-2-yl]oxy}phenyl)-1H-pyrazolo[4,3-b]pyridine]: 104%. As to `COCCn1c(Oc2ccc(-c3nn(CC(F)F)c4cc(F)cnc34)cc2)nc2cccnc21` [Example 49, 1-(2,2-Difluoroethyl)-6-fluoro-3-(4-{[3-(2-methoxyethyl)-3H-imidazo[4,5-b]pyridin-2-yl]oxy}phenyl)-1H-pyrazolo[4,3-b]pyridine], the inhibition at 1 µM is 103%.

Take `COCCn1c(Oc2ccc(-c3nn(C)c4cc(F)cnc34)cc2)nc2cccnc21` [Example 50, 6-Fluoro-3-(4-{[3-(2-methoxyethyl)-3H-imidazo[4,5-b]pyridin-2-yl]oxy}phenyl)-1-methyl-1H-pyrazolo[4,3-b]pyridine]: the inhibition at 1 µM was 100%. The same measure, in the same setting: to `Cn1c(Oc2ccc(-c3nn(CC(F)F)c4cc(F)cnc34)cc2)nc2cccnc21` [Example 51] belongs 102%; to `COCCn1c(Oc2ccc(-c3nn(CC(F)F)c4cccnc34)cc2)nc2cccnc21` [Example 52, 1-(2,2-Difluoroethyl)-3-(4-{[3-(2-methoxyethyl)-3H-imidazo[4,5-b]pyridin-2-yl]oxy}phenyl)-1H-pyrazolo[4,3-b]pyridine], 101%.

Test system in another series: not given
Assay: not given
Conditions: not given
Consider `c1ccc2[nH]c(Oc3ccc(-c4c5n(c6cccnc46)CCCC5)cc3)nc2c1` [Example 13, 10-[4-(1H-Benzimidazol-2-yloxy)phenyl]-6,7,8,9-tetrahydropyrido[2,3-b]indolizine], for which the melting point is 264 °C (dec.). On to `CCn1nc(-c2ccc(Oc3nc4cccnc4n3C)cc2)c2ncccc21` [Example 14, 1-Ethyl-3-{4-[(3-methyl-3H-imidazo[4,5-b]pyridin-2-yl)oxy]phenyl}-1H-pyrazolo[4,3-b]pyridine], for which the melting point was 176 to 177 °C. On the same count and under the same terms, the same measure for `CC(C)n1nc(-c2ccc(Oc3nc4cccnc4n3C)cc2)c2ncccc21` [Example 18, 1-(1-Methylethyl)-3-{4-[(3-methyl-3H-imidazo[4,5-b]pyridin-2-yl)oxy]phenyl}-1H-pyrazolo[4,3-b]pyridine]: 163 to 164 °C; for `CCn1nc(-c2ccc(Oc3nc4cccnc4n3C)cc2)c2nccnc21` [Example 28, 1-Ethyl-3-{4-[(3-methyl-3H-imidazo[4,5-b]pyridin-2-yl)oxy]phenyl}-1H-pyrazolo[3,4-b]pyrazine]: 161 to 162 °C. The same measure, in the same setting: the same measure for `CCn1nc(-c2ccc(Oc3nc4ccccc4n3CCO)cc2)c2ncccc21` [Example 29, 2-{2-[4-(1-Ethyl-1H-pyrazolo[4,3-b]pyridin-3-yl)phenoxy]-1H-benzimidazol-1-yl}ethanol]: 183 to 184 °C. Take `CCn1nc(-c2ccc(Oc3nc4ccccc4n3CC(C)(C)O)cc2)c2ncccc21` [Example 36, 1-{2-[4-(1-Ethyl-1H-pyrazolo[4,3-b]pyridin-3-yl)phenoxy]-1H-benzimidazol-1-yl}-2-methylpropan-2-ol]: the melting point was in the range of 152 to 153 °C. Same read-out and setting: to `CCn1nc(-c2ccc(Oc3nc4cccnc4n3C)cc2)c2ncncc21` [Example 38, 1-Ethyl-3-{4-[(3-methyl-3H-imidazo[4,5-b]pyridin-2-yl)oxy]phenyl}-1H-pyrazolo[4,3-d]pyrimidine] belongs 218 to 220 °C.
